The nature of the series: log Kow (penetration ability) of test molecules. Format: physicochemical. Here is the method:
A water suspension of liposomes was prepared with 1.5% of hydrophilic molecule A or 300 ppm (0.03%) hydrophilic molecule B, and 27% Pro-Lipo™ Neo. […] Molecule B was a hexapeptide (hexapeptide-38) with a molecular weight of (870 g/mol) and a penetration ability log Kow of −1.13. A water solution with 1.5% A or 300 ppm B was used as a control (non-entrapped molecule).

Turning to hexapeptide-38 [Molecule B], the “penetration ability log Kow” value is −1.13.

As to `Cn1c(=O)c2c(ncn2C)n(C)c1=O` [Molecule A, caffeine], the “penetration ability log Kow” value was −0.07.

Values taken from patent US12053547B2, “Liposomal compositions and methods of use” (Alastin Skincare, Inc., priority 2018, dated 2024).
